Assay results: ChEMBL document CHEMBL1147860, “ABC synthesis and antitumor activity of a series of Annonaceous acetogenin analogs with a threo, trans, threo, trans, threo-bis-tetrahydrofuran core unit” (Bioorg Med Chem Lett, 2007)
pIC50: −log10 of the molar value.

These compounds were tested on HCT-116 (assay: Cytotoxicity against HCT116 cells). Conditions: Homo sapiens.
Format: functional, cell-based

Compared with `C[C@H]1C=C(C[C@H](O)CCCCCCCCCC[C@@H](O)[C@H]2CC[C@H]([C@H]3CC[C@H]([C@H](O)CCCCCCO)O3)O2)C(=O)O1`, `CCCCCCCC[C@@H](O)[C@H]1CC[C@H]([C@H]2CC[C@H]([C@H](O)CCCCCCCCCC[C@@H](O)CC3=C[C@H](C)OC3=O)O2)O1` is 0.88 log units higher in pIC50: 8.42 for the first, 9.30 for the second. The second is the more potent here.

Going from `C[C@H]1C=C(C[C@H](O)CCCCCCCCCC[C@@H](O)[C@H]2CC[C@H]([C@H]3CC[C@H]([C@H](O)CCCCCCCCCCCO)O3)O2)C(=O)O1` to `C[C@H]1C=C(CCCCCCCCCCC[C@@H](O)[C@H]2CC[C@H]([C@H]3CC[C@H]([C@H](O)CCCCCCCCCCCO)O3)O2)C(=O)O1`, the pIC50 falls from 9.22 to 7.46 (1.76 log units). The first is the more potent here.

First: COCOCCCCCC[C@@H](O)[C@H]1CC[C@H]([C@H]2CC[C@H]([C@H](O)CCCCCCCCCC[C@@H](O)CC3=C[C@H](C)OC3=O)O2)O1
Second: CCCCCCCCCCC(O)C1CCC(C2CCC(C(O)CCCCCCCC[C@H](O)CC3=C[C@@H](C)OC3=O)O2)O1 (stereo partly specified) [ASIMICIN]
The pIC50 of the first is 0.26 log units lower: 7.80 for the first, 8.06 for the second. The second is the more potent here.
